Measured values published in US10351561B2, “Pyrazolo[3,4-b]pyridines and imidazo[1,5-b]pyridazines as PDE1 inhibitors” (H. Lundbeck A/S, priority 2016, dated 2019).

What was measured:
Assay type in all cases: biochemical
PDE1A = PDE1A (Homo sapiens, UniProt P54750); assay: PDE1 inhibition assay (PDE1A), SPA with tritium labelled cAMP; details: 15 nM tritium labelled cAMP, 1 hr at room temperature, SPA beads
Description: (§1) PDE1A, PDE1B and PDE1C assays were performed as follows: the assays were performed in 60 μL samples containing a fixed amount of the PDE1 enzyme (sufficient to convert 20-25% of the cyclic nucleotide substrate), a buffer (50 mM HEPES (4-(2-hydroxyethyl)-1-piperazineethanesulfonic acid) pH 7.6; 10 mM MgCl2; 0.02% Tween20), 0.1 mg/ml BSA (bovine serum albumin), 15 nM tritium labelled cAMP and varying amounts of inhibitors. Reactions were initiated by addition of the cyclic nucleotide substrate, and reactions were allowed to proceed for 1 hr at room temperature before being terminated through mixing with 20 μL (0.2 mg) yttrium silicate SPA beads (PerkinElmer). The beads were allowed to settle for 1 hr in the dark before the plates were counted in a Wallac 1450 Microbeta counter. The measured signals were converted to activity relative to an uninhibited control (100%) and IC50 values were calculated using XIFit (model 205, IDBS).

PDE1B = PDE1B (Homo sapiens, UniProt Q01064); assay: PDE1 inhibition assay (PDE1B), SPA with tritium labelled cAMP; details: 15 nM tritium labelled cAMP, 1 hr at room temperature, SPA beads; read-out: PDE1B, IC50
Chain of PDE1B (Q01064 whole entry): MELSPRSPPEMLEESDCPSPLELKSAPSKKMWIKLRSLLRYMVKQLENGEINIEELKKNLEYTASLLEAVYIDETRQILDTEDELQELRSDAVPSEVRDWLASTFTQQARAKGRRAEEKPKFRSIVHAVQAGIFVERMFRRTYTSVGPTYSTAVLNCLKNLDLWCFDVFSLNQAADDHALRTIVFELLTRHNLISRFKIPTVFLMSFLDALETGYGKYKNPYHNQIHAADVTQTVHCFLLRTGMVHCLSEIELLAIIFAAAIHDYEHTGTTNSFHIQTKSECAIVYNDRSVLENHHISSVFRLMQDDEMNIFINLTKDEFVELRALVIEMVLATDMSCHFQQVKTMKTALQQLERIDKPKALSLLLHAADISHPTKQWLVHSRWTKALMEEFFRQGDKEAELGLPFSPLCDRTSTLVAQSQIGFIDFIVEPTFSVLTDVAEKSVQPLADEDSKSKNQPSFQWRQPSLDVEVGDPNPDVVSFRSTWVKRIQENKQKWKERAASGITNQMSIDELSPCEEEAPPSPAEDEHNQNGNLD
Description: Reactions were initiated by addition of the cyclic nucleotide substrate, and reactions were allowed to proceed for 1 hr at room temperature before being terminated through mixing with 20 μL (0.2 mg) yttrium silicate SPA beads (PerkinElmer).

PDE1C = PDE1C (Homo sapiens, UniProt Q14123); assay: PDE1 inhibition assay (PDE1C), SPA with tritium labelled cAMP; details: 15 nM tritium labelled cAMP, 1 hr at room temperature, SPA beads
Chain of PDE1C (Q14123 whole entry): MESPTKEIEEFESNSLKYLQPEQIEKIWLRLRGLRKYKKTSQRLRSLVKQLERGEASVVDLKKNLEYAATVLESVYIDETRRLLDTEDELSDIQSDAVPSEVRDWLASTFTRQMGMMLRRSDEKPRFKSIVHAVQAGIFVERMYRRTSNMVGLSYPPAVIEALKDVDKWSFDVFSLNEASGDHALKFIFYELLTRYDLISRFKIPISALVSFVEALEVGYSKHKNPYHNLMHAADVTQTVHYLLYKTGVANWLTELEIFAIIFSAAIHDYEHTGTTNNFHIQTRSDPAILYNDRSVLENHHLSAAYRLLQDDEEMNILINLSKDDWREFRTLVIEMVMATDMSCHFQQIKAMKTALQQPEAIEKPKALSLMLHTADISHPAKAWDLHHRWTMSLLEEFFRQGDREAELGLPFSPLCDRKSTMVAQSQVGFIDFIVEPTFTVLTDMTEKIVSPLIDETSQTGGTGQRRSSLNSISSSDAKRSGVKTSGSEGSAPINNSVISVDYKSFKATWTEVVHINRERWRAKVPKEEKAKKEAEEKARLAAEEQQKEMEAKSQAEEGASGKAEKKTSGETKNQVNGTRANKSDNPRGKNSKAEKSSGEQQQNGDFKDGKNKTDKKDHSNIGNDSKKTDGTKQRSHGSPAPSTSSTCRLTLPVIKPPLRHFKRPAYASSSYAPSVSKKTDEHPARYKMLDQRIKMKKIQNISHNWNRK
Description: as §1

Chain of PDE1A (P54750 whole entry): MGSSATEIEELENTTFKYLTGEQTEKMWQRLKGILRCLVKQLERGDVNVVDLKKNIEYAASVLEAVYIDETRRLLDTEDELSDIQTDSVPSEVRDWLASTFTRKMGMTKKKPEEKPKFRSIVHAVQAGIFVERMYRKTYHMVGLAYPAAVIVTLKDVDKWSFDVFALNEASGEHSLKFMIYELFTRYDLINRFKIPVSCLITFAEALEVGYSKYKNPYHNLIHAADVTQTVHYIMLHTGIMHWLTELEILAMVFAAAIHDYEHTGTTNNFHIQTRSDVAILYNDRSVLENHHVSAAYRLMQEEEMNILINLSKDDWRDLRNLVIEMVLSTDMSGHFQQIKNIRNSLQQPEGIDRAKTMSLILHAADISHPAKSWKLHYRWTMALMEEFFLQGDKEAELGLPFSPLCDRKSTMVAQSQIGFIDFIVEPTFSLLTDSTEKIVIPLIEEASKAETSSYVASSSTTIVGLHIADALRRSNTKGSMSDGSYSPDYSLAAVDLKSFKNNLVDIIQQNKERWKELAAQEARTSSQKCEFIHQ

With `CCOc1ncccc1-c1cc(NCc2cnn(C)c2)c2c(C(C)CC)nc(C)n2n1` (single isomer, unassigned; (+)) [Example 48, (+)-2-(2-ethoxy-3-pyridyl)-7-methyl-N-[(1-methylpyrazol-4-yl)methyl]-5-[1-methylpropyl]imidazo[1,5-b]pyridazin-4-amine] as the compound, how does the IC50 (PDE1A) read?
Its IC50 is 5.8 nM.

What about the IC50 (PDE1B) of the same compound?
Its IC50 is 0.64 nM.

And the IC50 (PDE1C)?
Its IC50 is 4.9 nM.

`CCOc1ncccc1-c1cc(NCc2ncn(C)n2)c2c(C(C)CC)nc(C)n2n1` (single isomer, unassigned; (+)) [Example 50, (+)-2-(2-ethoxy-3-pyridyl)-7-methyl-N-[(1-methyl-1,2,4-triazol-3-yl)methyl]-5-[1-methylpropyl]imidazo[1,5-b]pyridazin-4-amine] was tested. Which IC50 (PDE1A) did it give?
Its IC50 is 5.6 nM.

And the IC50 (PDE1B)?
The IC50 was 0.53 nM.

What about the IC50 (PDE1C) of the same compound?
The IC50 was 2.4 nM.

How did the IC50 (PDE1A) turn out when `CCOc1ncccc1-c1cc(NCc2cc[nH]n2)c2c(C(C)CC)nc(C)n2n1` (single isomer, unassigned; (+)) [Example 51, (+)-2-(2-ethoxy-3-pyridyl)-7-methyl-N-(1H-pyrazol-3-ylmethyl)-5-[1-methylpropyl]imidazo[1,5-b]pyridazin-4-amine] was run?
Its IC50 is 57 nM.

And the IC50 (PDE1B)?
Its IC50 is 4.3 nM.

And the IC50 (PDE1C)?
The IC50 was 31 nM.

With `CCOc1ncccc1-c1cc(NCc2ccnc(OC)c2)c2c(C(C)CC)nc(C)n2n1` (single isomer, unassigned; (+)) [Example 53, (+)-2-(2-ethoxy-3-pyridyl)-N-[(2-methoxy-4-pyridyl)methyl]-7-methyl-5-[1-methylpropyl]imidazo[1,5-b]pyridazin-4-amine] as the compound, how does the IC50 (PDE1A) read?
The IC50 was 62 nM.

And the IC50 (PDE1B)?
The IC50 was 12 nM.

And the IC50 (PDE1C)?
The IC50 was 11 nM.

Which results are given for `CCOc1ncccc1-c1cc(NCc2cnn(C)c2)c2c(C(C)CC)nc(C)n2n1` (single isomer, unassigned; (-)) [Example 47, (−)-2-(2-ethoxy-3-pyridyl)-7-methyl-N-[(1-methylpyrazol-4-yl)methyl]-5-[1-methylpropyl]imidazo[1,5-b]pyridazin-4-amine]?
IC50 (PDE1A): 44 nM; IC50 (PDE1B): 7.5 nM; IC50 (PDE1C): 32 nM

Which results are given for `CCOc1ncccc1-c1cc(NCc2ncn(C)n2)c2c(C(C)CC)nc(C)n2n1` (single isomer, unassigned; (-)) [Example 49, (−)-2-(2-ethoxy-3-pyridyl)-7-methyl-N-[(1-methyl-1,2,4-triazol-3-yl)methyl]-5-[1-methylpropyl]imidazo[1,5-b]pyridazin-4-amine]?
IC50 (PDE1A): 14 nM; IC50 (PDE1B): 1.4 nM; IC50 (PDE1C): 7.6 nM

For `CCOc1ncccc1-c1cc(NCc2cc[nH]n2)c2c(C(C)CC)nc(C)n2n1` (single isomer, unassigned; (-)) [Example 52, (−)-2-(2-ethoxy-3-pyridyl)-7-methyl-N-(1H-pyrazol-3-ylmethyl)-5-[1-methylpropyl]imidazo[1,5-b]pyridazin-4-amine], which IC50 (PDE1A) is on record?
Its IC50 is 12 nM.

And the IC50 (PDE1B)?
The IC50 was 0.65 nM.

What about the IC50 (PDE1C) of the same compound?
Its IC50 is 6.1 nM.

How did the IC50 (PDE1A) turn out when `CCOc1ncccc1-c1cc(NCc2ccnc(OC)c2)c2c(C(C)CC)nc(C)n2n1` (single isomer, unassigned; (-)) [Example 54, (−)-2-(2-ethoxy-3-pyridyl)-N-[(2-methoxy-4-pyridyl)methyl]-7-methyl-5-[1-methylpropyl]imidazo[1,5-b]pyridazin-4-amine] was run?
The IC50 was 9.6 nM.

And the IC50 (PDE1B)?
The IC50 was 1.8 nM.

And the IC50 (PDE1C)?
The IC50 was 4.4 nM.

What does the source list for `CCOc1ncccc1-c1cc(NCc2coc(C)n2)c2c(C(C)C)nn(C)c2n1` [Example 2, 6-(2-ethoxy-3-pyridyl)-3-isopropyl-1-methyl-N-[(2-methyloxazol-4-yl)methyl]pyrazolo[3,4-b]pyridin-4-amine]?
IC50 (PDE1A): 81 nM; IC50 (PDE1B): 15 nM; IC50 (PDE1C): 99 nM

For `CCOc1ncccc1-c1cc(NCc2cc[nH]n2)c2c(C(C)C)nn(C)c2n1` [Example 3, 6-(2-ethoxy-3-pyridyl)-3-isopropyl-1-methyl-N-(1H-pyrazol-3-ylmethyl)pyrazolo[3,4-b]pyridin-4-amine], which IC50 (PDE1A) is on record?
The IC50 was 56 nM.

What about the IC50 (PDE1B) of the same compound?
Its IC50 is 4.3 nM.

What about the IC50 (PDE1C) of the same compound?
Its IC50 is 58 nM.

For `CCOc1ncccc1-c1cc(NCc2ncn(C)n2)c2c(C(C)C)nn(C)c2n1` [Example 4, 6-(2-ethoxy-3-pyridyl)-3-isopropyl-1-methyl-N-[(1-methyl-1,2,4-triazol-3-yl)methyl]pyrazolo[3,4-b]pyridin-4-amine], which IC50 (PDE1A) is on record?
Its IC50 is 11 nM.

What about the IC50 (PDE1B) of the same compound?
Its IC50 is 0.34 nM.

What about the IC50 (PDE1C) of the same compound?
Its IC50 is 13 nM.

For `CCOc1ncccc1-c1cc(NCc2noc(C)n2)c2c(C(C)C)nn(C)c2n1` [Example 5, 6-(2-ethoxy-3-pyridyl)-3-isopropyl-1-methyl-N-[(5-methyl-1,2,4-oxadiazol-3-yl)methyl]pyrazolo[3,4-b]pyridin-4-amine], which IC50 (PDE1A) is on record?
The IC50 was 8.9 nM.

And the IC50 (PDE1B)?
Its IC50 is 1.1 nM.

What about the IC50 (PDE1C) of the same compound?
Its IC50 is 19 nM.

With `CCOc1ncccc1-c1cc(NCc2cc(C)[nH]n2)c2c(C(C)C)nn(C)c2n1` [Example 6, 6-(2-ethoxy-3-pyridyl)-3-isopropyl-1-methyl-N-[(5-methyl-1H-pyrazol-3-yl)methyl]pyrazolo[3,4-b]pyridin-4-amine] as the compound, how does the IC50 (PDE1A) read?
Its IC50 is 14 nM.

What about the IC50 (PDE1B) of the same compound?
The IC50 was 1.2 nM.

What about the IC50 (PDE1C) of the same compound?
The IC50 was 20 nM.

How did the IC50 (PDE1A) turn out when `CCOc1ncccc1-c1cc(NCc2ccnc(OC)c2)c2c(C(C)C)nn(C)c2n1` [Example 7, 6-(2-ethoxy-3-pyridyl)-3-isopropyl-N-[(2-methoxy-4-pyridyl)methyl]-1-methyl-pyrazolo[3,4-b]pyridin-4-amine] was run?
Its IC50 is 14 nM.

What about the IC50 (PDE1B) of the same compound?
The IC50 was 2.6 nM.

And the IC50 (PDE1C)?
The IC50 was 18 nM.

For `CCOc1ncccc1-c1cc(NCc2cn(C)cn2)c2c(C(C)C)nc(C)n2n1` [Example 8, 2-(2-ethoxy-3-pyridyl)-5-isopropyl-7-methyl-N-[(1-methylimidazol-4-yl)methyl]imidazo[1,5-b]pyridazin-4-amine], which IC50 (PDE1A) is on record?
The IC50 was 2.4 nM.

And the IC50 (PDE1B)?
The IC50 was 0.22 nM.

What about the IC50 (PDE1C) of the same compound?
The IC50 was 2.6 nM.

`CCOc1ncccc1-c1cc(NCc2coc(C)n2)c2c(C(C)C)nc(C)n2n1` [Example 9, 2-(2-ethoxy-3-pyridyl)-5-isopropyl-7-methyl-N-[(2-methyloxazol-4-yl)methyl]imidazo[1,5-b]pyridazin-4-amine] was tested. Which IC50 (PDE1A) did it give?
The IC50 was 30 nM.

And the IC50 (PDE1B)?
The IC50 was 4.3 nM.

What about the IC50 (PDE1C) of the same compound?
The IC50 was 29 nM.

`CCOc1ncccc1-c1cc(NCc2cc[nH]n2)c2c(C(C)C)nc(C)n2n1` [Example 10, 2-(2-ethoxy-3-pyridyl)-5-isopropyl-7-methyl-N-(1H-pyrazol-3-ylmethyl)imidazo[1,5-b]pyridazin-4-amine] was tested. Which IC50 (PDE1A) did it give?
Its IC50 is 15 nM.

And the IC50 (PDE1B)?
Its IC50 is 1.6 nM.

And the IC50 (PDE1C)?
Its IC50 is 13 nM.

For `CCOc1ncccc1-c1cc(NCc2ncn(C)n2)c2c(C(C)C)nc(C)n2n1` [Example 11, 2-(2-ethoxy-3-pyridyl)-5-isopropyl-7-methyl-N-[(1-methyl-1,2,4-triazol-3-yl)methyl]imidazo[1,5-b]pyridazin-4-amine], which IC50 (PDE1A) is on record?
Its IC50 is 2 nM.

What about the IC50 (PDE1B) of the same compound?
Its IC50 is 0.28 nM.

And the IC50 (PDE1C)?
Its IC50 is 2.6 nM.

For `CCOc1ncccc1-c1cc(NCc2noc(C)n2)c2c(C(C)C)nc(C)n2n1` [Example 12, 2-(2-ethoxy-3-pyridyl)-5-isopropyl-7-methyl-N-[(5-methyl-1,2,4-oxadiazol-3-yl)methyl]imidazo[1,5-b]pyridazin-4-amine], which IC50 (PDE1A) is on record?
Its IC50 is 3.6 nM.

And the IC50 (PDE1B)?
Its IC50 is 0.35 nM.

And the IC50 (PDE1C)?
Its IC50 is 4 nM.

What does the source list for `CCOc1ncccc1-c1cc(NCc2cc(C)[nH]n2)c2c(C(C)C)nc(C)n2n1` [Example 13, 2-(2-ethoxy-3-pyridyl)-5-isopropyl-7-methyl-N-[(5-methyl-1H-pyrazol-3-yl)methyl]imidazo[1,5-b]pyridazin-4-amine]?
IC50 (PDE1A): 4.1 nM; IC50 (PDE1B): 0.31 nM; IC50 (PDE1C): 2.7 nM

With `CCOc1ncccc1-c1cc(NCc2cncc(OC)c2)c2c(C(C)C)nc(C)n2n1` [Example 14, 2-(2-ethoxy-3-pyridyl)-5-isopropyl-N-[(5-methoxy-3-pyridyl)methyl]-7-methyl-imidazo[1,5-b]pyridazin-4-amine] as the compound, how does the IC50 (PDE1A) read?
The IC50 was 6.2 nM.

What about the IC50 (PDE1B) of the same compound?
The IC50 was 1.5 nM.

And the IC50 (PDE1C)?
The IC50 was 5.1 nM.

With `CCOc1ncccc1-c1cc(NCc2ccnc(OC)c2)c2c(C(C)C)nc(C)n2n1` [Example 15, 2-(2-ethoxy-3-pyridyl)-5-isopropyl-N-[(2-methoxy-4-pyridyl)methyl]-7-methyl-imidazo[1,5-b]pyridazin-4-amine] as the compound, how does the IC50 (PDE1A) read?
Its IC50 is 7.3 nM.

And the IC50 (PDE1B)?
The IC50 was 1.7 nM.

And the IC50 (PDE1C)?
Its IC50 is 9 nM.

Which results are given for `CCOc1ncccc1-c1cc(NCc2cnc(C)o2)c2c(C(C)C)nc(C)n2n1` [Example 16, 2-(2-ethoxy-3-pyridyl)-5-isopropyl-7-methyl-N-[(2-methyloxazol-5-yl)methyl]imidazo[1,5-b]pyridazin-4-amine]?
IC50 (PDE1A): 19 nM; IC50 (PDE1B): 2.8 nM; IC50 (PDE1C): 16 nM

Which IC50 (PDE1A) does the source give for `CCOc1ncccc1-c1cc(NCc2cnc(C)s2)c2c(C(C)C)nc(C)n2n1` [Example 17, 2-(2-ethoxy-3-pyridyl)-5-isopropyl-7-methyl-N-[(2-methylthiazol-5-yl)methyl]imidazo[1,5-b]pyridazin-4-amine] here?
The IC50 was 6.1 nM.

What about the IC50 (PDE1B) of the same compound?
The IC50 was 1.5 nM.

And the IC50 (PDE1C)?
The IC50 was 5.7 nM.

Which IC50 (PDE1A) does the source give for `CCOc1ncccc1-c1cc(NCc2cn[nH]c2)c2c(C(C)C)nc(C)n2n1` [Example 18, 2-(2-ethoxy-3-pyridyl)-5-isopropyl-7-methyl-N-(1H-pyrazol-4-ylmethyl)imidazo[1,5-b]pyridazin-4-amine] here?
Its IC50 is 33 nM.

What about the IC50 (PDE1B) of the same compound?
Its IC50 is 5.7 nM.

What about the IC50 (PDE1C) of the same compound?
Its IC50 is 16 nM.

What does the source list for `CCOc1ncccc1-c1cc(NCc2cnn(C)c2)c2c(C(C)C)nn(C)c2n1` [Example 19, 6-(2-ethoxy-3-pyridyl)-3-isopropyl-1-methyl-N-[(1-methylpyrazol-4-yl)methyl]pyrazolo[3,4-b]pyridin-4-amine]?
IC50 (PDE1A): 44 nM; IC50 (PDE1B): 5.8 nM; IC50 (PDE1C): 56 nM
